Results taken from patent US20190241864A1, “Composition Comprising Non-Germinant and Bacterial Spores” (NOVOZYMES BIOAG A/S, priority 2016, published 2019).

Experiments:
[1] = tested on: spores from Bacillus pumilus strain SB3189; assay: Germinant testing of heat-activated spores, decrease in relative OD580; format: cell-based; settings: 3 mM
[2] = tested on: spores from Bacillus amyloliquefaciens strain SB3615; assay: as above; settings: substance alone, 3 mM; 37° C., 70 minutes
[3] = tested on: spores from Bacillus megaterium strain SB3112; assay: as above; format: cell-based; settings: Example 2 studies, 3 mM
[4] = tested on: Bacillus megaterium strain SB3112 spores; assay: Spore germination by DPA release after L-asparagine treatment; format: cell-based; settings: for Gmax: mean of 3
[5] = tested on: Bacillus pumilus strain SB3189 spores; assay: Spore germination by dipicolinic acid (DPA) release (Tb-DPA fluorescence) after L-valine treatment; format: cell-based; settings: for Gmax: then 10 mM AAGFK, mean of 3
Protocol: This was performed three consecutive times.
Germination of spores in these studies was determined by measuring dipicolinic acid (DPA). DPA is about 10% of the mass of endospores, all of which is generally released when germination is triggered. Boiling spores generally releases all of the DPA. DPA release was detected using terbium chloride (TbCl3), as described below.
To perform the germination assays, 30 μl of spores were added to wells of a 96-well flat-bottom microtiter plate. Subsequently, 35 μl of a 250 μM TbCl3 stock was added. At time 0, 85 μl of a 10 mM L-alanine+10 mM AGFK (10 mM AGFK is 10 mM each of L-asparagine, D-glucose, D-fructose, and KCl) (10 mM AAGFK) was added. […] Tb-DPA is excited at 270 nm and emits at 545 nm. All experimental samples were tested in triplicate. Baseline controls for each sample were generated by omitting L-alanine and these were performed in duplicate. All sample wells were measured immediately after […] was added (time 0) and then over time. For each time point, the data were normalized to values for the spores that had been boiled for two hours to force 100% release of DPA from the spores.

O=C(CO)[C@@H](O)[C@H](O)[C@H](O)CO [D-fructose]
germination of spores by substance alone [1]: None of L-alanine, L-cysteine, D-fructose, or sucrose alone, at a concentration of 3 mM, caused germination

C[C@H](N)C(=O)O [L-alanine]
germination of spores by substance alone [1]: None of L-alanine, L-cysteine, D-fructose, or sucrose alone, at a concentration of 3 mM, caused germination
germination of spores [2]: could cause germination

NC(=O)C[C@H](N)C(=O)O [L-asparagine]
germinant behavior [3]: not shown to have germinant behavior
Gmax compared to spores not pretreated with L-asparagine ([4]; 4° C., native and heat-activated spores, all tested concentrations): increased Gmax
Gmax compared to spores not pretreated with L-asparagine ([4]; 22° C., 3.0 mM, both native and heat-activated spores): increased Gmax
Gmax compared to spores not pretreated with L-asparagine ([4]; 22° C., 10 mM, native spores): also increased Gmax
Gmax ([4]; heat activated spores, 0.5 mM L-asparagine overnight at 4° C.): 106%
Gmax ([4]; heat activated spores, 0.5 mM L-asparagine overnight at 22° C.): 81%
Gmax ([4]; heat activated spores, 3.0 mM L-asparagine overnight at 4° C.): 109%
Gmax ([4]; heat activated spores, 3.0 mM L-asparagine overnight at 22° C.): 102%
Gmax ([4]; heat activated spores, 10.0 mM L-asparagine overnight at 4° C.): 114%
Gmax ([4]; heat activated spores, 10.0 mM L-asparagine overnight at 22° C.): 79%
Gmax ([4]; native spores, 0.5 mM L-asparagine overnight at 4° C.): 29%
Gmax ([4]; native spores, 0.5 mM L-asparagine overnight at 22° C.): 56%
Gmax ([4]; native spores, 3.0 mM L-asparagine overnight at 4° C.): 28%
Gmax ([4]; native spores, 3.0 mM L-asparagine overnight at 22° C.): 100%
Gmax ([4]; native spores, 10.0 mM L-asparagine overnight at 4° C.): 29%
Gmax ([4]; native spores, 10.0 mM L-asparagine overnight at 22° C.): 81%

N[C@@H](CS)C(=O)O [L-cysteine]
germination of spores by substance alone [1]: None of L-alanine, L-cysteine, D-fructose, or sucrose alone, at a concentration of 3 mM, caused germination

CC(C)[C@H](N)C(=O)O [L-valine]
germinant activity ([1]; tested in combination with individual sugars, and in combination with salts): did not show germinant activity
Gmax ([5]; 0.5 mM L-valine 24 hours at 4° C.): 74%
Gmax ([5]; 0.5 mM L-valine 24 hours at 22° C.): 6%
change of Gmax ([5]; 0.5 mM L-valine at 22° C.): the Gmax decreased
Gmax ([5]; 3.0 mM L-valine 24 hours at 4° C.): 70%
Gmax ([5]; 3.0 mM L-valine 24 hours at 22° C.): 43%
increase in Gmax compared to the control that did not contain L-valine ([5]; 3.0 mM L-valine at 22° C.): ~3 fold
Gmax ([5]; 10.0 mM L-valine 24 hours at 4° C.): 76%
Gmax ([5]; 10.0 mM L-valine 24 hours at 22° C.): 77%
increase in Gmax compared to the control that did not contain L-valine ([5]; 10.0 mM L-valine at 22° C.): ~5 fold
change of Tlag ([5]; L-valine 0.5-10.0 mM, 4° C. and 22° C.): Tlag was not changed
effects on germination parameters ([5]; L-valine incubated with spores at 4° C.): small effects on germination parameters

OC[C@H]1O[C@@](CO)(O[C@H]2O[C@H](CO)[C@@H](O)[C@H](O)[C@H]2O)[C@@H](O)[C@@H]1O [sucrose]
germination of spores by substance alone [1]: None of L-alanine, L-cysteine, D-fructose, or sucrose alone, at a concentration of 3 mM, caused germination
